Consider 20 molecules from ChEMBL document CHEMBL3352001, “2,4-Dialkyl-8,9,10,11-tetrahydrobenzo[g]pyrimido[4,5-c]isoquinoline-1,3,7,12(2H,4H)-tetraones as new leads against Mycobacterium tuberculosis” (Eur J Med Chem, 2014).

The structures appear in SMILES notation. ≈ marks a conversion by molar mass, not a printed value.

The nature of data set [1]: Selectivity index, ratio of I50 for mouse J774A1 cells to GI50 for Mycobacterium tuberculosis H37Rv. To be noted: read-out: Selectivity Index. It is filed as toxicity, cell-based, J774.A1.
Data set [2] is described as follows: Cytotoxicity against mouse J774A1 cells after 24 hrs by neutral red dye uptake assay. The format is cell-based. To be noted: J774.A1, 24 h, read-out: I50.
The test system of data set [3] is Salmonella typhimurium. Nature of the data set: Genotoxicity in Salmonella typhimurium T104 Genox (recN2-4) expressing lux operon assessed as S/N ratio at 0.1 to 10 ug/mL measured for 4 hrs with 5 mins interval by vitotox assay in presence of S9 fraction. The format is toxicity, organism-based. To be noted: salmonella enterica subsp. enterica serovar typhimurium, s9, 4 h.

The test system of data set [4] is Mycobacterium tuberculosis. Nature of the data set: Antimycobacterial activity against Mycobacterium tuberculosis H37Rv infected in mouse J774A1 cells assessed as reduction in bacterial load inside the cell at 3.13 ug/mL treatment stated after 24 hrs of infection for 4 days by luminometry. The format is functional, J774.A1. Further details: scale not given: the % may be the effect or the level left.

Data set [5] deals with Mycobacterium tuberculosis. The data set can be described thus: Antimycobacterial activity against Mycobacterium tuberculosis H37Rv infected in mouse J774A1 cells assessed as reduction in bacterial load inside the cell at 6.25 ug/mL treatment stated after 24 hrs of infection for 4 days by luminometry. The format is functional, J774.A1. Further details: scale not given: the % may be the effect or the level left.

Data set [6] relates to Salmonella typhimurium. Nature of the data set: Genotoxicity in Salmonella typhimurium Cytox (pr1) expressing lux operon assessed as S/N ratio at 0.1 to 10 ug/mL measured for 4 hrs with 5 mins interval by vitotox assay in presence of S9 fraction. It is filed as toxicity, organism-based. To be noted: salmonella enterica subsp. enterica serovar typhimurium, s9, 4 h.
Data set [7] concerns Salmonella typhimurium. Nature of the data set: Genotoxicity in Salmonella typhimurium T104 Genox (recN2-4) expressing lux operon assessed as S/N ratio at 0.1 to 10 ug/mL measured for 4 hrs with 5 mins interval by vitotox assay. It is filed as toxicity, organism-based. To be noted: salmonella enterica subsp. enterica serovar typhimurium.
Data set [8] deals with Salmonella typhimurium. Nature of the data set: Genotoxicity in Salmonella typhimurium Cytox (pr1) expressing lux operon assessed as S/N ratio at 0.1 to 10 ug/mL measured for 4 hrs with 5 mins interval by vitotox assay. The format is toxicity, organism-based. To be noted: salmonella enterica subsp. enterica serovar typhimurium.
Data set [9] in a line: Cytotoxicity against mouse J774A1 cells assessed as structural organization of DNA at 0.5 to 5 ug/mL after 24 hrs by Comet assay. The format is cell-based. To be noted: j774.a1, 24 h.
Data set [10] has as its system Mycobacterium tuberculosis. Nature of the data set: Antimycobacterial activity against Mycobacterium tuberculosis H37Rv infected in mouse J774A1 cells assessed as reduction in extracellular bacterial load at 3.13 ug/mL treatment stated after 24 hrs of infection for 4 days by luminometry. The format is functional, J774.A1.
The test system of data set [11] is Mycobacterium tuberculosis. Nature of the data set: Antimycobacterial activity against Mycobacterium tuberculosis H37Rv infected in mouse J774A1 cells assessed as reduction in bacillary replication at 3.13 ug/mL treatment stated after 24 hrs of infection for 4 days by luminometry. It is filed as functional, J774.A1.
The test system of data set [12] is Mycobacterium tuberculosis. Nature of the data set: Antimycobacterial activity against Mycobacterium tuberculosis H37Rv infected in mouse J774A1 cells assessed as reduction in bacillary replication at 6.25 ug/mL treatment stated after 24 hrs of infection for 4 days by luminometry. It is filed as functional, J774.A1.
The subject of data set [13] is Mycobacterium tuberculosis. The data set can be described thus: Antimycobacterial activity against Mycobacterium tuberculosis H37Rv infected in mouse J774A1 cells assessed as reduction in bacillary replication at 12.5 ug/mL treatment stated after 24 hrs of infection for 4 days by luminometry. The format is functional, J774.A1.

In the case of `Cn1c(=O)c2c3c(cnc2n(C)c1=O)C(=O)C1=C(C3=O)C2CCC1C2` (stereo not given), the selectivity ratio in [1] amounted to 9.72. In data set [2], the IC50 worked out at 15.4 µg/mL (≈ 45.5 µM).

Turning to `CCn1c(=O)c2c3c(cnc2n(CC)c1=O)C(=O)C1=C(C3=O)C2CCC1C2` (stereo not given), in [1], the selectivity ratio is 10.8. For the same molecule, in data set [2], the IC50 was 18.2 µg/mL (≈ 49.9 µM).

As to `CCCn1c(=O)c2c3c(cnc2n(CCC)c1=O)C(=O)C1=C(C3=O)C2CCC1C2` (stereo not given), in data set [1], the selectivity ratio was found to be 18.7. Besides, the IC50 in [2] stood at 18.7 µg/mL (≈ 47.5 µM).

Take `CC(C)n1c(=O)c2c3c(cnc2n(C(C)C)c1=O)C(=O)C1=C(C3=O)C2CCC1C2` (stereo not given): the Ratio in data set [3] is reported as 0.8; in data set [6], under 1.5; in data set [7], 0.8; in data set [8], under 1.5. In addition, the figures for the Activity in data set [4], in [5] and in [9] were 57.72%, 98.03% and “Non-toxic”, respectively. Besides, the selectivity ratio in [1] was 10.8. For the same molecule, the “inhibition (INH)” value in data set [10] is on record as 99%. Further, the IC50 in [2] was found to be 9.71 µg/mL (≈ 24.7 µM).

On to `CCCCn1c(=O)c2c3c(cnc2n(CCCC)c1=O)C(=O)C1=C(C3=O)C2CCC1C2` (stereo not given), for which, in data set [1], the selectivity ratio was found to be 6.51. Moreover, the IC50 in data set [2] turned out to be 9.5 µg/mL (≈ 22.5 µM).

For the molecule `CC(C)Cn1c(=O)c2c3c(cnc2n(CC(C)C)c1=O)C(=O)C1=C(C3=O)C2CCC1C2` (stereo not given), in data set [1], the selectivity ratio was found to be 8.06. Besides, the IC50 in [2] was determined as 16.8 µg/mL (≈ 39.8 µM).

Take `CCCCCn1c(=O)c2c3c(cnc2n(CCCCC)c1=O)C(=O)C1=C(C3=O)C2CCC1C2` (stereo not given): the selectivity ratio in [1] was 10.6. For the same molecule, in data set [2], the IC50 came to 13.4 µg/mL (≈ 29.7 µM).

Consider `CC(C)CCn1c(=O)c2c3c(cnc2n(CCC(C)C)c1=O)C(=O)C1=C(C3=O)C2CCC1C2` (stereo not given), for which the selectivity ratio in [1] was found to be 9.32. Also, the IC50 in data set [2] came to 22.5 µg/mL (≈ 50 µM).

Turning to `CCCCCCn1c(=O)c2c3c(cnc2n(CCCCCC)c1=O)C(=O)C1=C(C3=O)C2CCC1C2` (stereo not given), the selectivity ratio in [1] came out at 9.9. For the same molecule, the IC50 in data set [2] was found to be 12.1 µg/mL (≈ 25.3 µM).

Turning to `CCCCCCCn1c(=O)c2c3c(cnc2n(CCCCCCC)c1=O)C(=O)C1=C(C3=O)C2CCC1C2` (stereo not given), the “inhibition (INH)” value came out at 65.5% in data set [11], 80.4% in data set [12] and 91.3% in [13]. For the same molecule, the Ratio in data set [3] is given as 0.8; in [6], under 1.5; in data set [7], 0.8; in [8], under 1.5. The selectivity ratio in data set [1] came to 42. Also, in [9], the Activity entry is on record as “Non-toxic”. Further, the IC50 in data set [2] was 26.5 µg/mL (≈ 52.3 µM).

For the molecule `Cn1c(=O)c2c3c(cnc2n(C)c1=O)C(=O)C1=C(C3=O)C2CCC1CC2`, the selectivity ratio in data set [1] was found to be 5.94. Further, the IC50 in data set [2] was found to be 16.8 µg/mL (≈ 47.8 µM).

As to `CCn1c(=O)c2c3c(cnc2n(CC)c1=O)C(=O)C1=C(C3=O)C2CCC1CC2`, the selectivity ratio in data set [1] amounted to 7.79. Further, the IC50 in data set [2] turned out to be 19.9 µg/mL (≈ 52.4 µM).

In the case of `CCCn1c(=O)c2c3c(cnc2n(CCC)c1=O)C(=O)C1=C(C3=O)C2CCC1CC2`, the selectivity ratio in data set [1] came out at 8.5. In addition, in data set [2], the IC50 is 22 µg/mL (≈ 54 µM).

In the case of `CC(C)n1c(=O)c2c3c(cnc2n(C(C)C)c1=O)C(=O)C1=C(C3=O)C2CCC1CC2`, the “inhibition (INH)” value in [11] was found to be 58.7%; in data set [12] it was 82.3%. The Ratio in [3] is 0.8; in data set [6], under 1.5; in data set [7] it was 0.8; in data set [8] it was under 1.5. Besides, in data set [1], the selectivity ratio came to 16.1. Besides, in data set [9], the Activity result is reported as “Non-toxic”. In data set [2], the IC50 is 11.8 µg/mL (≈ 28.9 µM).

Take `CCCCn1c(=O)c2c3c(cnc2n(CCCC)c1=O)C(=O)C1=C(C3=O)C2CCC1CC2`: the selectivity ratio in data set [1] is 5.36. In data set [2], the IC50 stood at 9.87 µg/mL (≈ 22.7 µM).

As to `CC(C)Cn1c(=O)c2c3c(cnc2n(CC(C)C)c1=O)C(=O)C1=C(C3=O)C2CCC1CC2`, in data set [1], the selectivity ratio turned out to be 4.69. Moreover, in data set [2], the IC50 amounted to 20.4 µg/mL (≈ 46.9 µM).

Take `CCCCCn1c(=O)c2c3c(cnc2n(CCCCC)c1=O)C(=O)C1=C(C3=O)C2CCC1CC2`: in [1], the selectivity ratio turned out to be 11. Further, the IC50 in data set [2] amounted to 16.4 µg/mL (≈ 35.3 µM).

On to `CC(C)CCn1c(=O)c2c3c(cnc2n(CCC(C)C)c1=O)C(=O)C1=C(C3=O)C2CCC1CC2`, for which the selectivity ratio in data set [1] amounted to 4.77. Besides, the IC50 in data set [2] is 23.4 µg/mL (≈ 50.4 µM).

With `CCCCCCn1c(=O)c2c3c(cnc2n(CCCCCC)c1=O)C(=O)C1=C(C3=O)C2CCC1CC2`, the selectivity ratio in data set [1] came to 10.1. In addition, the IC50 in data set [2] was determined as 13.7 µg/mL (≈ 27.9 µM).

With `CCCCCCCn1c(=O)c2c3c(cnc2n(CCCCCCC)c1=O)C(=O)C1=C(C3=O)C2CCC1CC2`, the Ratio is 0.8 in [3], under 1.5 in [6], 0.8 in data set [7] and under 1.5 in data set [8]. The selectivity ratio in [1] worked out at 24.8. In data set [9], the Activity result was “Non-toxic”. Moreover, the results for the “inhibition (INH)” value in data set [12] and in data set [13] were 68.8% and 92%, respectively. Also, the IC50 in data set [2] turned out to be 32.8 µg/mL (≈ 63.1 µM).
